Among the data in US5420287A, “1,2 diarylcyclopentenyl compounds for the treatment of inflammation” (G. D. Searle & Co., priority 1994, dated 1995) are inhibition in vivo values, retold here.

The test relates to carrageenan foot edema. Kind of test: Rat Carrageenan Foot Pad Edema Test. In kind it is in vivo, Male Sprague-Dawley rats. The following applies: @ 10 mg/kg body weight, oral, 3 h after carrageenan injection, read-out: RAT PAW EDEMA % Inhibition.

Description: One hour later a subplantar injection of 0.1 mL of 1% solution of carrageenan/sterile 0.9% saline was administered and the volume of the injected foot was measured with a displacement plethysmometer connected to a pressure transducer with a digital indicator.

`CS(=O)(=O)c1ccc(C2=C(c3ccc(F)cc3)CCC2)cc1` [Example 1, 1-[2-(4-fluorophenyl)cyclopenten-1-yl]-4-(methylsulfonyl)benzene]: the inhibition in vivo at 10 mg/kg came out at 33%.
